Patent publication EP0101786A1, “Use of a benzoisothiazoline derivative for the manufacture of a medicament against thrombosis and platelet aggregation” (GREEN CROSS CORPORATION, priority 1982, dated 1984)

Tests used:
[1] = system: platelet aggregation initiated by promoter ADP (platelet-rich plasma); assay: Inhibition of ADP-induced platelet aggregation (aggregometer, nephelometry); format: cell-based; details: 2 min; for inhibition at 10 µg/mL: final conc. 10 γ/ml (10.0 γ/ml); for inhibition at 3 µg/mL: final conc. 3.0 γ/ml
Procedure: The inhibitory activity of BIT (1) compounds against platelet aggregation initiated by promoter ADP was determined for various amounts of the BIT (1) compounds. […] Silicon-coated cuvettes on the Aggregometer were filled with 0.8 ml of diluted platelet-rich plasma (containing 300,000 to 400,000 platelets per cmm) and 0.1 ml of solutions of the BIT (1) compounds listed in Table 1 having different concentration (0.3 y/ml, 1.0 γ/ml and 3.0 y/ml as dissolved in 100% alcohol), as well as adenosine (20 y/ml and 100 y/ml) and aspirin (500 y/ml) were added. Following 2-minute incubation, ADP was added to give a final concentration of 10^-5 M. The final volume of each sample was 1 ml. The process of platelet aggregation was monitored with the recorder pen which traced aggregation curves.
The percent inhibition of aggregation was calculated by the following formula: [formula] wherein M represents light transmittance for maximum aggregation in 100 % ethanol (Control);
D represents light transmittance for maximum aggregation in the specific sample.

[2] = system: platelets (platelet-rich plasma, ADP-aggregated); assay: Acceleration of platelet disaggregation after ADP-induced maximum aggregation; format: cell-based; details: 5 minutes after addition, control about 12 %
Procedure: ADP was added to platelet-rich plasma as used in (1) above, and when maximum aggregation was reached, BIT (1) compound (R=n-C3H7, X-Cl) was added to check its ability to accelerate the disaggregation of platelets. In this experiment, the procedure of experiment (1) was repeated except that the BIT (1) was added after the aggregation of platelets occurred. To give final concentrations of 1.0 γ/ml, 3.0 y/ml and 6.0 y/ml as dissolved in 100 % ethanol, 0.1 ml of solutions containing 10 γ/ml, 30 γ/ml and 60 y/ml of BIT (1) were added after maximum platelet aggregation took place. As a control, 100 % ethanol was added instead of the BIT (1). The degree of disaggregation was determined by measuring the absorbance of the test samples 5 minuts after the addition of the BIT (1) as against the absorbance for maximum aggregation in that sample.

[3] = Acute toxicity test, oral, Litchfield-Wilcoxon method; details: mouse, in vivo, male ddy mice, suspension in distilled water with 0.5 % carboxymethyl cellulose
Procedure: A group of 10 male ddy mice each weighing […] were subject to an acute toxicity test with BIT (1) (R=n-C3H7, X-Cl) which was administered to the mice orally as suspensions in distilled water for injection that contained 0.5 % of carboxymethyl cellulose.

[4] = ADP 10^-5 M, 2-minute incubation

In the case of `Nc1ncnc2c1ncn2[C@@H]1O[C@H](CO)[C@@H](O)[C@H]1O` [Adenosine, reference compound], the inhibition at 2 µg/mL ([1]; final conc. 2 γ/ml, ADP 10^-5 M, 2-minute incubation) is reported as 47% and the inhibition at 10 µg/mL [1, 4] is reported as 62%.

Compound `CC(=O)Oc1ccccc1C(=O)O` [Aspirin, reference compound] has an inhibition at 50 µg/mL ([1]; read-out: Inhibition of platelet aggregation) of 0%.

With `O=c1[nH]sc2cc(Cl)ccc12` [BIT (R=H) (X=Cl)] the inhibition at 10 µg/mL [1, 4] was 100%.

Compound `CCCn1sc2cc(Cl)ccc2c1=O` [BIT (R=n-C3H7) (X=Cl), 6-chloro-2-n-propyl-1,2-benzoisothiazolin-3-one] has a disaggregation level ([2]; final concentration 1.0 γ/ml) of 25%, a disaggregation level ([2]; final concentration 3.0 γ/ml) of 47% and a disaggregation level ([2]; final concentration 6.0 γ/ml) of 64%. It also gave an inhibition at 0.3 µg/mL ([1]; final conc. 0.3 γ/ml, ADP 10^-5 M, 2-minute incubation) of 18%, an inhibition at 1 µg/mL ([1]; final conc. 1.0 γ/ml, ADP 10^-5 M, 2-minute incubation) of 43% and an inhibition at 3 µg/mL [1, 4] of 100%. The LD50 [3] was 6500 mg/kg.

Work on `CCCCCCn1sc2cc(Cl)ccc2c1=O` [BIT (R=n-C6H13) (X=Cl), 6-chloro-2-n-hexyl-1,2-benzoisothiazolin-3-one] yielded an inhibition at 3 µg/mL [1, 4] of 100%.

For `CCCCCCCCCCn1sc2cc(Cl)ccc2c1=O` [BIT (R=n-C10H21) (X=Cl), 6-chloro-2-n-decyl-1,2-benzoiso-thiazolin-3-one], the inhibition at 3 µg/mL [1, 4] was 100%.
